Test results from patent US20240349723A1 (priority 2023, published 2024).
“Also recorded” adds a separate entry of the source. Like-named read-outs stand apart in the source and are kept apart here. Where a SMILES comes first, the peptide text is derived from it. Where no end group is shown, it is not given here.

How the values were obtained:
[1] = test system: Liberibacter crescens strain BT-1
[2] = test system: CLas; assay type: in vivo, Candidatus Liberibacter asiaticus
[3] = test system: Diaphorina citri; assay type: in vivo; conditions: for live adult psyllids collected from the ten leaves: after 21 day assay, 10 nymphs per excised leaf, peptides 1 mg/mL, PMB 0.5 mg/mL; for Nymph mortality of D. citri: dead psyllids counted daily, 21 days, FIG. 9
[4] = test system: 'Candidatus Liberibacter asiaticus' (CLas); assay type: in vivo; conditions: excised CLas-infected citrus leaves, 1 mg/ml, seven-day incubation, FIG. 5
[5] = adults developed on treated CLas-infected leaves, 21 days, FIG. 7

LRFRSVFHIFASVLAVAKKH [compound 6]
Percent growth rate inhibition L. crescens ([1]; L. crescens strain BT-1, BM7 medium, final peptide 1 or 0.1 mg/ml, O.D. 600 nm over seven days): 66.6%

CC[C@H](C)[C@H](NC(=O)[C@H](CC(N)=O)NC(=O)[C@@H](NC(=O)CNC(=O)[C@H](CCCNC(=N)N)NC(=O)[C@H](Cc1ccccc1)NC(=O)[C@H](CCC(N)=O)NC(=O)[C@@H]1CCCN1C(=O)[C@H](CS)NC(=O)[C@H](CC(=O)O)NC(=O)[C@H](CCCCN)NC(=O)[C@H](CC(=O)O)NC(=O)[C@H](CCCNC(=N)N)NC(=O)[C@H](CCCCN)NC(=O)[C@H](CS)NC(=O)CNC(=O)[C@@H](N)CCCNC(=N)N)C(C)C)C(=O)N[C@@H](CCCNC(=N)N)C(=O)N[C@@H](CS)C(=O)N[C@@H](CCCNC(=N)N)C(=O)O [compound 9] (H-RGCKRDKDCPQFRGVNIRCR-OH; N-terminus and C-terminus assumed)
Percent growth rate inhibition L. crescens ([1]; 0.1 mg/ml): 65.4%

RGCKRDKDCPQFRGVNIRCR (listed as Medicago truncatula) [SEQ ID NO: 9]
development of psyllid with more than 100 CLas cells per insect (high titer) ([2]; in vivo): completely blocking the development of psyllid with more than 100 CLas cells; also recorded: No highly infected adults develop | number of infective Diaphorina citri adults that develop on treated leaves ([2]; in vivo): reduces the number of infective Diaphorina citri adults | live adult psyllids collected from the ten leaves [3]: 80

YSSCATKEECKCPDNKRPAC (listed as Medicago truncatula) [SEQ ID NO: 8]
adult insects with more than 100 CLas cell equivalents per insect ([2]; count out of adults collected, 21 days, FIG. 7): 2/84 | number of infective Diaphorina citri adults that develop on treated leaves ([2]; leaf delivery, FIG. 7): reduces the number of infective Diaphorina citri adults | live adult psyllids collected from the ten leaves [3]: 84

polymyxin B sulfate [PMB, reference compound]
CLas 16S transcript-to-gene ratio (CLas rRNA : CLas rDNA), CLas activity [4]: greater declines in detectable CLas activity | performance in the bacterial growth assays ([1]; positive growth inhibition control, 0.5 mg/ml): excellent performance as an antimicrobial peptide | development of psyllid with more than 100 CLas cells per insect (high titer) [2, 5]: prevented the development of high titer psyllid | CLas titer in the excised leaves ([2]; excised leaf acquisition assay, FIG. 6A, differences not statistically significant): reduced CLas titer in the excised leaves | live adult psyllids collected from the ten leaves [3]: 87

VKCVLPRIARCIKYRCQCRN (listed as Medicago truncatula) [SEQ ID NO: 10]
development of psyllid with more than 100 CLas cells per insect (high titer) [2, 5]: completely blocking the development of psyllid with more than 100 CLas cells; also recorded: No highly infected adults develop | number of infective Diaphorina citri adults that develop on treated leaves ([2]; leaf delivery, FIG. 7): reduces the number of infective Diaphorina citri adults | live adult psyllids collected from the ten leaves [3]: 74

QNLCVGSPLPLQCLKFICRC (listed as Medicago truncatula) [SEQ ID NO: 14]
number of infective Diaphorina citri adults that develop on treated leaves ([2]; leaf delivery, FIG. 7): reduces the number of infective Diaphorina citri adults | Nymph mortality of D. citri [3]: Nymph mortality observed

LYCNVGSHMECVKHQCKCIK (listed as Medicago truncatula) [SEQ ID NO: 11]
number of infective Diaphorina citri adults that develop on treated leaves ([2]; leaf delivery, FIG. 7): reduces the number of infective Diaphorina citri adults | Nymph mortality of D. citri [3]: Nymph mortality observed
